Data: the supplement of paper PMC10307832

Tests used:
Test in all cases: relative viability (nuclei count vs DMSO), 5 days (fraction); higher = more cells survive
LC-2-ad = system: LC-2-ad
Procedure, shortened: (§1)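 Lung cancer cell lines, seeded in 1536-well plates, were treated the following day by pin tool with a single drug or with five library-drug doses (not always all listed) in √10 steps on top of a fixed anchor-drug dose. Cells were fixed and nuclei stained in one step after 5 days, and nuclei were counted. Relative viability is the nuclei count for treated wells divided by that for vehicle wells, reported as medians of duplicate plates.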

NCI-H650 = system: NCI-H650
Procedure, shortened: as §1

NCI-H2347 = system: NCI-H2347
Procedure, shortened: as §1

NCI-H2126 = system: NCI-H2126
Procedure, shortened: as §1

COR-L 105 = system: COR-L 105
Procedure, shortened: as §1

H3255 = system: H3255
Procedure, shortened: as §1

NCI-H661 = system: NCI-H661
Procedure, shortened: as §1

HCC-78 = system: HCC-78
Procedure, shortened: as §1

NCI-H322M = system: NCI-H322M
Procedure, shortened: as §1

PC-14 = system: PC-14
Procedure, shortened: as §1

EPLC-272H = system: EPLC-272H
Procedure, shortened: as §1

LCLC-97TM1 = system: LCLC-97TM1
Procedure, shortened: as §1

NCI-H2087 = system: NCI-H2087
Procedure, shortened: as §1

NCI-H647 = system: NCI-H647
Procedure, shortened: as §1

NCI-H23 = system: NCI-H23
Procedure, shortened: as §1

RERF-LC-KJ = system: RERF-LC-KJ
Procedure, shortened: as §1

201T = system: 201T
Procedure, shortened: as §1

NCI-H2405 = system: NCI-H2405
Procedure, shortened: as §1

NCI-H520 = system: NCI-H520
Procedure, shortened: as §1

NCI-H1915 = system: NCI-H1915
Procedure, shortened: as §1

NCI-H1666 = system: NCI-H1666
Procedure, shortened: as §1

HCC-827 = system: HCC-827
Procedure, shortened: as §1

ChaGo-K-1 = system: ChaGo-K-1
Procedure, shortened: as §1

Compound: COc1cc(N2CCC(C(N)=O)CC2)ccc1Nc1nc(N)c(Cl)c(Nc2ccccc2S(=O)(=O)C(C)C)n1 [HG-5-88-01] + COc1cc2c(Oc3ccc(NC(=O)C4(C(=O)Nc5ccc(F)cc5)CC4)cc3F)ccnc2cc1OCCCN1CCOCC1 [Foretinib] (partner 0.25 µM)
- relative viability (LC-2-ad; first compound 0.04 µM): 0.987
- relative viability (LC-2-ad; first compound 0.1265 µM): 0.906
- relative viability (LC-2-ad; first compound 0.4 µM): 0.956
- relative viability (LC-2-ad; first compound 1.265 µM): 0.54
- relative viability (LC-2-ad; first compound 4 µM): 0.739
- relative viability (NCI-H650; first compound 0.04 µM): 1.1
- relative viability (NCI-H650; first compound 0.1265 µM): 1.18
- relative viability (NCI-H650; first compound 0.4 µM): 0.949
- relative viability (NCI-H650; first compound 1.265 µM): 0.602
- relative viability (NCI-H650; first compound 4 µM): 0.719
- relative viability (NCI-H2347; first compound 0.04 µM): 0.845
- relative viability (NCI-H2347; first compound 0.1265 µM): 0.974
- relative viability (NCI-H2347; first compound 0.4 µM): 1.03
- relative viability (NCI-H2347; first compound 1.265 µM): 0.65
- relative viability (NCI-H2347; first compound 4 µM): 0.452
- relative viability (NCI-H2126; first compound 0.1265 µM): 1.22
- relative viability (NCI-H2126; first compound 0.4 µM): 1.05
- relative viability (NCI-H2126; first compound 1.265 µM): 0.937
- relative viability (NCI-H2126; first compound 4 µM): 1.23
- relative viability (COR-L 105; first compound 0.04 µM): 1.05
- relative viability (COR-L 105; first compound 0.1265 µM): 1.11
- relative viability (COR-L 105; first compound 0.4 µM): 1.16
- relative viability (COR-L 105; first compound 1.265 µM): 0.969
- relative viability (COR-L 105; first compound 4 µM): 0.629
- relative viability (H3255; first compound 0.04 µM): 0.854
- relative viability (H3255; first compound 0.1265 µM): 0.874
- relative viability (H3255; first compound 0.4 µM): 0.856
- relative viability (H3255; first compound 4 µM): 0.649
- relative viability (NCI-H661; first compound 0.04 µM): 1.01
- relative viability (NCI-H661; first compound 0.1265 µM): 1.05
- relative viability (NCI-H661; first compound 0.4 µM): 1.1
- relative viability (NCI-H661; first compound 1.265 µM): 1.03
- relative viability (NCI-H661; first compound 4 µM): 1.09
- relative viability (HCC-78; first compound 0.04 µM): 0.589
- relative viability (HCC-78; first compound 0.1265 µM): 0.533
- relative viability (HCC-78; first compound 0.4 µM): 0.583
- relative viability (HCC-78; first compound 1.265 µM): 0.377
- relative viability (HCC-78; first compound 4 µM): 0.464
- relative viability (NCI-H322M; first compound 0.04 µM): 0.927
- relative viability (NCI-H322M; first compound 0.1265 µM): 0.782
- relative viability (NCI-H322M; first compound 0.4 µM): 0.635
- relative viability (NCI-H322M; first compound 4 µM): 0.759
- relative viability (PC-14; first compound 0.04 µM): 0.974
- relative viability (PC-14; first compound 0.1265 µM): 0.951
- relative viability (PC-14; first compound 0.4 µM): 0.806
- relative viability (PC-14; first compound 1.265 µM): 0.804
- relative viability (PC-14; first compound 4 µM): 0.699
- relative viability (EPLC-272H; first compound 0.04 µM): 0.761
- relative viability (EPLC-272H; first compound 0.1265 µM): 0.735
- relative viability (EPLC-272H; first compound 0.4 µM): 0.593
- relative viability (EPLC-272H; first compound 1.265 µM): 0.472
- relative viability (EPLC-272H; first compound 4 µM): 0.0478
- relative viability (LCLC-97TM1; first compound 0.04 µM): 0.893
- relative viability (LCLC-97TM1; first compound 0.1265 µM): 0.972
- relative viability (LCLC-97TM1; first compound 0.4 µM): 0.882
- relative viability (LCLC-97TM1; first compound 1.265 µM): 0.864
- relative viability (LCLC-97TM1; first compound 4 µM): 0.326
- relative viability (NCI-H2087; first compound 0.04 µM): 1.13
- relative viability (NCI-H2087; first compound 0.1265 µM): 1.24
- relative viability (NCI-H2087; first compound 0.4 µM): 1.06
- relative viability (NCI-H2087; first compound 1.265 µM): 1.14
- relative viability (NCI-H2087; first compound 4 µM): 0.864
- relative viability (NCI-H647; first compound 0.04 µM): 1.33
- relative viability (NCI-H647; first compound 0.1265 µM): 1.07
- relative viability (NCI-H647; first compound 0.4 µM): 1.28
- relative viability (NCI-H647; first compound 1.265 µM): 1.05
- relative viability (NCI-H647; first compound 4 µM): 1.31
- relative viability (NCI-H23; first compound 0.04 µM): 1.08
- relative viability (NCI-H23; first compound 0.1265 µM): 1.06
- relative viability (NCI-H23; first compound 0.4 µM): 0.972
- relative viability (NCI-H23; first compound 1.265 µM): 0.729
- relative viability (NCI-H23; first compound 4 µM): 0.515
- relative viability (RERF-LC-KJ; first compound 0.04 µM): 0.869
- relative viability (RERF-LC-KJ; first compound 0.1265 µM): 0.849
- relative viability (RERF-LC-KJ; first compound 0.4 µM): 0.839
- relative viability (RERF-LC-KJ; first compound 1.265 µM): 0.836
- relative viability (RERF-LC-KJ; first compound 4 µM): 0.846
- relative viability (201T; first compound 0.04 µM): 1.18
- relative viability (201T; first compound 0.1265 µM): 1.09
- relative viability (201T; first compound 0.4 µM): 1.12
- relative viability (201T; first compound 1.265 µM): 0.444
- relative viability (201T; first compound 4 µM): 1.02
- relative viability (NCI-H2405; first compound 0.04 µM): 1.08
- relative viability (NCI-H2405; first compound 0.1265 µM): 1.03
- relative viability (NCI-H2405; first compound 0.4 µM): 0.974
- relative viability (NCI-H2405; first compound 1.265 µM): 0.571
- relative viability (NCI-H2405; first compound 4 µM): 0.895
- relative viability (NCI-H520; first compound 0.04 µM): 0.705
- relative viability (NCI-H520; first compound 0.1265 µM): 0.942
- relative viability (NCI-H520; first compound 0.4 µM): 0.629
- relative viability (NCI-H520; first compound 1.265 µM): 0.828
- relative viability (NCI-H520; first compound 4 µM): 0.76
- relative viability (NCI-H1915; first compound 0.04 µM): 1.22
- relative viability (NCI-H1915; first compound 0.1265 µM): 1.22
- relative viability (NCI-H1915; first compound 0.4 µM): 1.04
- relative viability (NCI-H1915; first compound 1.265 µM): 1.2
- relative viability (NCI-H1915; first compound 4 µM): 1.04
- relative viability (NCI-H1666; first compound 0.04 µM): 1.06
- relative viability (NCI-H1666; first compound 0.1265 µM): 1.06
- relative viability (NCI-H1666; first compound 0.4 µM): 1
- relative viability (NCI-H1666; first compound 1.265 µM): 0.74
- relative viability (NCI-H1666; first compound 4 µM): 0.677
- relative viability (HCC-827; first compound 0.04 µM): 1.06
- relative viability (HCC-827; first compound 0.1265 µM): 1.12
- relative viability (HCC-827; first compound 0.4 µM): 1.05
- relative viability (HCC-827; first compound 1.265 µM): 0.965
- relative viability (HCC-827; first compound 4 µM): 0.579
- relative viability (ChaGo-K-1; first compound 0.04 µM): 0.761
- relative viability (ChaGo-K-1; first compound 0.1265 µM): 1.03
- relative viability (ChaGo-K-1; first compound 0.4 µM): 0.804
- relative viability (ChaGo-K-1; first compound 1.265 µM): 0.942
- relative viability (ChaGo-K-1; first compound 4 µM): 0.909
